Test results: PMC7614683, “A small molecule PI3Kα activator for cardioprotection and neuroregeneration” (Nature, 2023)
Read-outs that look alike come from different tables or passages of the source.

Assays:
Test in all cases: SelectScreen Z-LYTE kinase activity assay (SI Table 6)
Assay type in all cases: biochemical
[1] = target: protein kinases of the Z-LYTE panel (Homo sapiens, UniProt P12931)
Outline: (§1)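 Compound 1938 counterscreened at 1 μM against 133 protein and 7 lipid kinases in the SelectScreen panel, using Adapta, LanthaScreen binding and Z-LYTE formats as applicable.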

[2] = target: protein kinases of the Z-LYTE panel (Homo sapiens, UniProt P54756)
protein kinases of the Z-LYTE panel (Homo sapiens, UniProt P54756), sequence (P54756 25-1037): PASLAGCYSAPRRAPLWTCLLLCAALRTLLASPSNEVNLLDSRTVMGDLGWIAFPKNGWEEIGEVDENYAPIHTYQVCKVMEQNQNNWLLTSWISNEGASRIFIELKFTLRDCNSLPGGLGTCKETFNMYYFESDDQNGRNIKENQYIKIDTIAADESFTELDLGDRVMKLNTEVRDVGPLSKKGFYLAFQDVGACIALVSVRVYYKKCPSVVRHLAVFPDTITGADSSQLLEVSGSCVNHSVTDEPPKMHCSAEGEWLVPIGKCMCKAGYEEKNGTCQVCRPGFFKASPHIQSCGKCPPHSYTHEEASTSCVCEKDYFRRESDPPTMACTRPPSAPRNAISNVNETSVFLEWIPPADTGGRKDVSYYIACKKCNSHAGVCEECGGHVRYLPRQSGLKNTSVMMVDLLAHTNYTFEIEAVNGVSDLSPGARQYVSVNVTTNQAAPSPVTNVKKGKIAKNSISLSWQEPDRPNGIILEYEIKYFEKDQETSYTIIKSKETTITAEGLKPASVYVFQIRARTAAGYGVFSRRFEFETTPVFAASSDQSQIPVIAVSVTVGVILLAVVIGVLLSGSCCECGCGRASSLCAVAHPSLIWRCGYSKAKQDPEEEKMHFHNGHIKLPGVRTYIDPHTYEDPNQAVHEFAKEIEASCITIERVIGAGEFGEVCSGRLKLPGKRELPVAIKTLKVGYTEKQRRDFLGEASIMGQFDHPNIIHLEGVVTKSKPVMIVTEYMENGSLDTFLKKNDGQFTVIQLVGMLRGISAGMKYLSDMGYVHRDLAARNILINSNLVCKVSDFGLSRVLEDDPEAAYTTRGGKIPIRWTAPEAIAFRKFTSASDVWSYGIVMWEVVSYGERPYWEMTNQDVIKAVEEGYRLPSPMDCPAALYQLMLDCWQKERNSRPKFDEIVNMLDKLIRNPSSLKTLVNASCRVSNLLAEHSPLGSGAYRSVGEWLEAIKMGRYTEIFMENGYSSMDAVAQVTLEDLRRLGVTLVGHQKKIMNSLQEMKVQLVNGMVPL
Outline: as §1

[3] = target: protein kinases of the Z-LYTE panel (Homo sapiens, UniProt P07332)
protein kinases of the Z-LYTE panel (Homo sapiens, UniProt P07332), sequence (P07332 whole entry): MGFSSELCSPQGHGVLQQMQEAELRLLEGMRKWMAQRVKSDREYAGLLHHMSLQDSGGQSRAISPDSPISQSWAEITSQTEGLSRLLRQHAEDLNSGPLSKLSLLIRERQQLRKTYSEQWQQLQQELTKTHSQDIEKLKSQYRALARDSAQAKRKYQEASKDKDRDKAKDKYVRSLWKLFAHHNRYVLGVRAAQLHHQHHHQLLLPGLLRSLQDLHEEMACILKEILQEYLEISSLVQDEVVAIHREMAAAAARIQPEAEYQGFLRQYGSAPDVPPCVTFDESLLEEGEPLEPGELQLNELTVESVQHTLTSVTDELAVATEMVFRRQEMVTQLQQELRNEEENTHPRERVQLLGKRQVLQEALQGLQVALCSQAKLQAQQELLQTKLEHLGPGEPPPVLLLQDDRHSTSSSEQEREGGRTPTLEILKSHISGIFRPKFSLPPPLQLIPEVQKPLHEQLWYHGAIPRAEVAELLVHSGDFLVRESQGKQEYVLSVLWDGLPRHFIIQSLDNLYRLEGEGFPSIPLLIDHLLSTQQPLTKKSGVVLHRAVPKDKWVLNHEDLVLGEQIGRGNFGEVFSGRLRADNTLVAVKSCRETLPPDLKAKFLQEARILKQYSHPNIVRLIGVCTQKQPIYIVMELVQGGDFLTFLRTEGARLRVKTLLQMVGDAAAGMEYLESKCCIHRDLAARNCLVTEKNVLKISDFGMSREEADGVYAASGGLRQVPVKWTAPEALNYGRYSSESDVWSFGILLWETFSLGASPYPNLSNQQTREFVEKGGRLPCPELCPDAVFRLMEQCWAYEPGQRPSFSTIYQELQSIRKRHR
Outline: as §1

[4] = target: protein kinases of the Z-LYTE panel (Homo sapiens, UniProt P07949, V804L)
Outline: as §1

[5] = target: protein kinases of the Z-LYTE panel (Homo sapiens, UniProt P06493)
protein kinases of the Z-LYTE panel (Homo sapiens, UniProt P06493), sequence (P06493 whole entry): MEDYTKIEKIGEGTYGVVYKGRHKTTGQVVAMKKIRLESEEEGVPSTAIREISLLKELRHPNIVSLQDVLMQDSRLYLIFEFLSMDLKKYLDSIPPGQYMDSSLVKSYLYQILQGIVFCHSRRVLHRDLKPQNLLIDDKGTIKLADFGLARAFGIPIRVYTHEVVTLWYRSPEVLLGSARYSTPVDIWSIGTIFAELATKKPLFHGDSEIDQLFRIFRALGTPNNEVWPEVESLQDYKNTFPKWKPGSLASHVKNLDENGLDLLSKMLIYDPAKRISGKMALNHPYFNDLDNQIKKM
Outline: as §1

[6] = target: protein kinases of the Z-LYTE panel (Homo sapiens, UniProt Q96SB4)
protein kinases of the Z-LYTE panel (Homo sapiens, UniProt Q96SB4), sequence (Q96SB4 whole entry): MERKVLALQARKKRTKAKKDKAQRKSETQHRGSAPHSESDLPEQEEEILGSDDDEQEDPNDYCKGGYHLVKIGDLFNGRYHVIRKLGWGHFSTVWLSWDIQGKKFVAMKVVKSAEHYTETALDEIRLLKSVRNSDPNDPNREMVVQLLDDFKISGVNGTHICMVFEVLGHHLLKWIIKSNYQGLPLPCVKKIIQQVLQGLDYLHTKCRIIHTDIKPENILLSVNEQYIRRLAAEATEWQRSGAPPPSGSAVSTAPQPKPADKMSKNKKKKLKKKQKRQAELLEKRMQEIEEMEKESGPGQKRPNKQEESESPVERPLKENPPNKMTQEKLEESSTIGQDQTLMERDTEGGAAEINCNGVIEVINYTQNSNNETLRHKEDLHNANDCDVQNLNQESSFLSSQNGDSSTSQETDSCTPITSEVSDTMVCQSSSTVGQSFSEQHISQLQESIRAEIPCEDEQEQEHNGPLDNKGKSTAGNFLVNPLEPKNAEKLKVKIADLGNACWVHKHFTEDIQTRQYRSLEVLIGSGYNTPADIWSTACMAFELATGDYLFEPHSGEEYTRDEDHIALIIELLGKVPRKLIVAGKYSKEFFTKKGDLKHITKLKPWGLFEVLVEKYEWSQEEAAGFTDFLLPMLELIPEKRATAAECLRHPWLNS
Outline: as §1

[7] = target: protein kinases of the Z-LYTE panel (Homo sapiens, UniProt Q13177)
protein kinases of the Z-LYTE panel (Homo sapiens, UniProt Q13177), sequence (Q13177 whole entry): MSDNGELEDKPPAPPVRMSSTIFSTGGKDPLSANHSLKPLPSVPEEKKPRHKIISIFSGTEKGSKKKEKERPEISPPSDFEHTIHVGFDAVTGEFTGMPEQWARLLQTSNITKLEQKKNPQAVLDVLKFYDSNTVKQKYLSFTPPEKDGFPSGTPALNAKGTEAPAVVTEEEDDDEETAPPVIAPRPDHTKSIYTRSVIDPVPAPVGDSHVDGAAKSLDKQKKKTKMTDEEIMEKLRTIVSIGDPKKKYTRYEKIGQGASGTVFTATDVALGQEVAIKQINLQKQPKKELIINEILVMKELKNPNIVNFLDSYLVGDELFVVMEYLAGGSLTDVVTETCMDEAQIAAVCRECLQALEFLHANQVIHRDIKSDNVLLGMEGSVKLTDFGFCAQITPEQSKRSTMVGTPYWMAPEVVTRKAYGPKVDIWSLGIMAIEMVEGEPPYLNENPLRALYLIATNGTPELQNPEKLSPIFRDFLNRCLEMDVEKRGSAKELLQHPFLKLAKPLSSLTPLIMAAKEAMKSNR
Outline: as §1

[8] = target: protein kinases of the Z-LYTE panel (Homo sapiens, UniProt P04626)
Outline: as §1

[9] = target: protein kinases of the Z-LYTE panel (Homo sapiens, UniProt P28482)
protein kinases of the Z-LYTE panel (Homo sapiens, UniProt P28482), sequence (P28482 whole entry): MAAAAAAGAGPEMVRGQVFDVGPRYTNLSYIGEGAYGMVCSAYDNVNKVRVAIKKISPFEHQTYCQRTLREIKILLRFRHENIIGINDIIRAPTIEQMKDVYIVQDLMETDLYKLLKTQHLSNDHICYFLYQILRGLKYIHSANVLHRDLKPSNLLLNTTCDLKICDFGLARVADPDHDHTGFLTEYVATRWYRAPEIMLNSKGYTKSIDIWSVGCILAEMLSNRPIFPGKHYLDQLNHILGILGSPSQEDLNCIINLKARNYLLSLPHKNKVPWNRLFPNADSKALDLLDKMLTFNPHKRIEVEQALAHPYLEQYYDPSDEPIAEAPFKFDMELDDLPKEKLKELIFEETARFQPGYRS
Outline: as §1

protein kinases of the Z-LYTE panel (Homo sapiens, UniProt P12931), sequence (P12931 whole entry): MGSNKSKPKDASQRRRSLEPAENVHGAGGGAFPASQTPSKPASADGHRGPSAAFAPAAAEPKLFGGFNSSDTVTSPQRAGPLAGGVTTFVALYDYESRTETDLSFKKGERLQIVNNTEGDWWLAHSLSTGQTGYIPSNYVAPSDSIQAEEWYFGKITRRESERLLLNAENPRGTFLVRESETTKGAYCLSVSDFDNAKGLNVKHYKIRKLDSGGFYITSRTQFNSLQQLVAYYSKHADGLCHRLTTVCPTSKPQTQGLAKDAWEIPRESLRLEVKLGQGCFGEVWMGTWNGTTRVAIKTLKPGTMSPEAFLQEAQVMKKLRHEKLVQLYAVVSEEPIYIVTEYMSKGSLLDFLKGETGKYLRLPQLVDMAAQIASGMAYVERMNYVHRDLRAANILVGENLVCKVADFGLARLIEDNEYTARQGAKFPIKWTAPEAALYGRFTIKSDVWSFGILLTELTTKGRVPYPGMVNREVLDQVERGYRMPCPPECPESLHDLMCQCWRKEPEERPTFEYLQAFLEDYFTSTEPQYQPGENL

Question: Which inhibition at 1 µM ([1]; read-out: % Inhibition Point 1) does the source give for CCN1CCN(c2ccc(Nc3cc(Nc4cccc5c4N(C(C)=O)CC5)ccn3)cc2)CC1 [Compound 1938] here?
Answer: The inhibition at 1 µM was 28%.

Question: What about the inhibition at 1 µM ([1]; read-out: % Inhibition Point 2) of the same compound?
Answer: Its inhibition at 1 µM is 29%.

Question: What about the inhibition at 1 µM ([1]; read-out: % Inhibition mean) of the same compound?
Answer: The inhibition at 1 µM was 29%.

Question: What about the inhibition at 1 µM ([2]; read-out: % Inhibition Point 1) of the same compound?
Answer: The inhibition at 1 µM was 4.24%.

Question: What about the inhibition at 1 µM ([2]; read-out: % Inhibition Point 2) of the same compound?
Answer: Its inhibition at 1 µM is 1.52%.

Question: And the inhibition at 1 µM ([2]; read-out: % Inhibition mean)?
Answer: The inhibition at 1 µM was 3%.

Question: What about the inhibition at 1 µM ([3]; read-out: % Inhibition Point 1) of the same compound?
Answer: Its inhibition at 1 µM is 7%.

Question: What about the inhibition at 1 µM ([3]; read-out: % Inhibition Point 2) of the same compound?
Answer: Its inhibition at 1 µM is 8%.

Question: What about the inhibition at 1 µM ([3]; read-out: % Inhibition mean) of the same compound?
Answer: Its inhibition at 1 µM is 7.57%.

Question: And the inhibition at 1 µM ([4]; read-out: % Inhibition Point 1)?
Answer: The inhibition at 1 µM was 11%.

Question: And the inhibition at 1 µM ([4]; read-out: % Inhibition Point 2)?
Answer: The inhibition at 1 µM was 11%.

Question: What about the inhibition at 1 µM ([4]; read-out: % Inhibition mean) of the same compound?
Answer: The inhibition at 1 µM was 11%.

Question: And the inhibition at 1 µM ([5]; read-out: % Inhibition Point 1)?
Answer: The inhibition at 1 µM was 5.46%.

Question: And the inhibition at 1 µM ([5]; read-out: % Inhibition Point 2)?
Answer: Its inhibition at 1 µM is 3.74%.

Question: And the inhibition at 1 µM ([5]; read-out: % Inhibition mean)?
Answer: The inhibition at 1 µM was 4.6%.

Question: What about the inhibition at 1 µM ([6]; read-out: % Inhibition Point 1) of the same compound?
Answer: Its inhibition at 1 µM is 1.56%.

Question: What about the inhibition at 1 µM ([6]; read-out: % Inhibition Point 2) of the same compound?
Answer: The inhibition at 1 µM was 1.35%.

Question: What about the inhibition at 1 µM ([6]; read-out: % Inhibition mean) of the same compound?
Answer: Its inhibition at 1 µM is 1.46%.

Question: And the inhibition at 1 µM ([7]; read-out: % Inhibition Point 1)?
Answer: The inhibition at 1 µM was 5%.

Question: And the inhibition at 1 µM ([7]; read-out: % Inhibition Point 2)?
Answer: Its inhibition at 1 µM is 4.68%.

Question: And the inhibition at 1 µM ([7]; read-out: % Inhibition mean)?
Answer: Its inhibition at 1 µM is 5%.

Question: What about the inhibition at 1 µM ([8]; read-out: % Inhibition Point 1) of the same compound?
Answer: Its inhibition at 1 µM is -2.48%.

Question: What about the inhibition at 1 µM ([8]; read-out: % Inhibition Point 2) of the same compound?
Answer: The inhibition at 1 µM was 2.33%.

Question: What about the inhibition at 1 µM ([8]; read-out: % Inhibition mean) of the same compound?
Answer: Its inhibition at 1 µM is -0.0739%.

Question: And the inhibition at 1 µM ([9]; read-out: % Inhibition Point 1)?
Answer: Its inhibition at 1 µM is -0.368%.

Question: What about the inhibition at 1 µM ([9]; read-out: % Inhibition Point 2) of the same compound?
Answer: The inhibition at 1 µM was 13%.

Question: And the inhibition at 1 µM ([9]; read-out: % Inhibition mean)?
Answer: The inhibition at 1 µM was 6.48%.
